Patent US20210128609A1, “ONCOLOGY TREATMENTS USING ZINC AGENTS” (XYLONIX IP HOLDINGS PTE. LTD., priority 2018, published 2021)

Tests used:
HeLa cells = conditions: 24h co-incubation with C004
Text: See Goodall, M. L. et al., Developmental Cell, vol. 37, 337-349 (2016).

HCC-PDX xenograft = HCC-PDX xenograft on Humanized NSG mice with TIL analysis (Example 11); format: in vivo; conditions: tumor infiltrating leukocytes
Procedure: Pembrolizumab 25 mg/mL (Keytruda®, Merck® KGa) was purchased from Merck®. Isotonic zinc sulfate gamma-polyglutamate solution was prepared at pH 7.0 using Tris buffer (1 mM), at elemental zinc concentration of 1 mg/mL and gamma-polyglutamate concentration of 10 mg/mL.
All manipulations and procedures with mice were approved by Agency for Science, Technology and Research (A*STAR) Institutional Animal Care and Use Committee (IACUC). The diet provided was irradiated TEKLAD GLOBAL 18% Protein Rodent Diet (2918). Mice were housed in a sterile environment and only accessed under a BSL2 hood. Mice were fed, given water and monitored daily for health, and cages were changed weekly. NSG mice were purchased from The Jackson Laboratory and bred in a specific pathogen free facility at the Biological Resource Centre (BRC) in A*STAR, Singapore. One to three days old NSG pups were irradiated with a 55 s exposure equaling 1.1 Gy and transplanted with 1×10^5 CD34+ human fetal liver cells by intra-hepatic injections. The mice were bled at 8 weeks post-transplantation to determine the fraction of human immune cell reconstitution. Reconstitution was calculated by [% hCD45+/(% hCD45++% mCD45+)]. […]
Tumor volume was measured in two dimensions (length and width) using calipers and the tumor volume was calculated using the formula: Tumor size=(length […])×½. […]

Row | Molecule | effect of inhibitor/agonist on C004-induced necrotic cytotoxicity (LDH release assay) (HeLa cells) | TIL analysis, T cell involvement (HCC-PDX xenograft)
1 | N.S=C(S)N1CCCC1 [PDTC] | did not cause a shift in the IC50 necrotic cytotoxicity | –
2 | Pembrolizumab | – | solely dependent on CD8+ T cells
